“And” between values parts separate entries of the source, which are not always exact repeats. Equal values may be shown once. Inconclusive results are not listed. The source made the active and inactive calls.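 The calls were made as follows: active = fitted half-maximal concentration of signal decrease at or below twice the sample's top tested concentration; inconclusive = flat curve between -70 and -30 percent, or poor fit; inactive = flat within 30 percent, signal rise, or potency above limit.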

The AC50 is the midpoint of the concentration-response curve, whichever way the signal moves.

For this assay, the target named is T. gondii ME49Luc in IFN-y HeLa, luciferase, 72 h. The assay is described as follows: inhibitors of Toxoplasma growth in IFN-γ-primed HeLa – cell-based, ME49Luc, luciferase, 72 h, dose response (AID 1259418).
Consider `Clc1ccccc1-c1nc(NCCCN2CCN(c3ccccc3)CC2)c2ccccc2n1`, for which the AC50 is > 39000 nM (inactive).
In the case of `COCCNc1nc(-c2ccc(OC)cc2)nc2ccccc12` it was 18400 nM; in that of `CCOc1ccc(-c2nc(CN(c3ccc(OC)cc3)S(=O)(=O)c3cccs3)c(C)o2)cc1`, 8010 nM and 17400 nM.
In the case of `CC(C)Cc1ccc(S(=O)(=O)N2CCC3(CC2)NCCN=C3NCc2ccc(Cl)cc2)cc1` it was 12400 nM; in that of `O=C(NCc1cccnc1)C1CCN(Cc2cc3ccccc3n2Cc2ccc(F)cc2)CC1`, 38300 nM; in that of `COc1cc(Nc2nc(SCc3ccc(F)cc3)nc3ccccc23)cc(OC)c1`, 13200 nM.
The result for `CCCc1cc(C2CCCN2C(=O)Cn2nc(C(F)(F)F)c3c2CCCC3)no1` (centres undefined) reads 21600 nM; that for `C(=C\c1ccc(C2[C@@H]3CN(Cc4nccs4)C[C@H]2N3)cc1)/c1ccccc1` (some centres undefined), 17100 nM.
In the case of `Oc1cccc(-c2nccn2-c2cccc(-c3ccn[nH]3)c2)c1`, the AC50 was 22700 nM.
The result for `CCc1ccc(S(=O)(=O)N2CCC[C@@H]2C(=O)NCCc2csc(-c3ccccc3)n2)cc1` reads 21800 nM.
Take `Cc1cccc(NC(=O)COc2nc(C)nc3ccccc23)c1`: the AC50 was 32000 nM.
In the case of `Cc1ccccc1-c1nc(CN2CCN(C(=O)NC3CCCC3)CC2)c(C)o1` it was > 39000 nM (inactive).
In the case of `CC(C)CC#Cc1ccc([C@H]2[C@H]3CN(C(=O)Nc4cc(F)ccc4F)CC(=O)N3[C@H]2CO)cc1` it was > 39 µM (inactive) and 8.8 µM; in that of `Clc1ccc(-c2nc(N3CCC(N4CCCCC4)CC3)c3ccccc3n2)cc1`, 18400 nM.
The result for `O=S(=O)(c1ccc2c(c1)CCCC2)N1CCC2(CC1)NCCN=C2NCc1ccccc1F` reads 16400 nM.
In the case of `Cc1cccc(CNC2=NCCNC23CCN(S(=O)(=O)c2cc(C)c(C)cc2C)CC3)c1`, the AC50 is 5490 nM.
In the case of `COc1ccccc1NC(=O)N1C[C@@H]2N[C@H](C1)C2c1ccc(/C=C/c2ccccc2)cc1` (some centres undefined) it was 6840 nM and 4450 nM and 4220 nM; in that of `CCC(C(=O)N1CCC2(CC1)Nc1ccc(Cl)cc1-n1cccc12)c1ccccc1` (centres undefined), > 39000 nM (inactive).
The result for `CCCCOc1ccc2c(=O)c(-c3cc(C(=O)OC)oc3C)c(C(F)(F)F)oc2c1C` reads 4380 nM and 7670 nM; that for `Cc1ccc(C(=O)N2CCC3(CC2)Nc2ccc(Cl)cc2-n2cccc23)cc1F`, > 39000 nM (inactive); that for `COc1cccc(S(=O)(=O)N2CCCCN3[C@@H](CO)[C@@H](c4ccc(C#CCC(C)C)cc4)[C@@H]3C2)c1`, 4660 nM and 5610 nM and 2220 nM.
The result for `O=C(Nc1ccc(F)cc1)N1CC(=O)N2[C@H](C1)[C@H](c1ccc(-c3cccc(F)c3)cc1)[C@@H]2CO` reads 17900 nM; that for `O=C(Nc1ccc(-c2nc(-c3ccccc3)co2)cc1)c1cccc(F)c1`, 30600 nM.
Turning to `O=C1CCc2cc(NC(=O)c3cccc(C(F)(F)F)c3)ccc2N1`, the AC50 is 16800 nM.
As to `COc1ccc(C#Cc2ccc([C@H]3[C@H]4CN(C(=O)NC(C)C)CC(=O)N4[C@H]3CO)cc2)cc1`, the AC50 is 18500 nM.
With `O=C(c1ccc(F)cc1)N1CC(=O)N2[C@@H](CO)[C@@H](c3ccc(C#CCC4CCCC4)cc3)[C@@H]2C1`, the AC50 is 23500 nM.
In the case of `OC[C@H]1[C@@H](c2ccc(C#Cc3ccccc3F)cc2)[C@@H]2CN(CC3CCOCC3)CCCCN12` it was 15900 nM; in that of `COc1cccc(CNC2=NCCNC23CCN(S(=O)(=O)c2ccc4c(c2)CCCC4)CC3)c1`, 16300 nM.
In the case of `CCc1ccc(S(=O)(=O)N2CCC3(CC2)NCCN=C3NCc2ccc(Cl)cc2)cc1` it was 7780 nM; in that of `Cc1ccc(NC(=O)N2CCN(Cc3nc(-c4ccccc4C)oc3C)CC2)cc1F`, > 39000 nM (inactive); in that of `COc1cccc(-c2nc(C)c(-c3ccc(SCc4cccc(Cl)c4)nn3)s2)c1`, 11100 nM.
For `Cc1ccc2c(c1)c1ncn(Cc3nc(C(C)C)no3)c(=O)c1n2CC(=O)N1CCCC1`, the AC50 was 14500 nM.
In the case of `CCOc1ccc(N(Cc2nc(-c3ccc(OC)cc3)oc2C)S(=O)(=O)c2ccccc2)cc1` it was 3960 nM and 3810 nM; in that of `Cc1nc(OCC(=O)Nc2ccc(Br)cc2F)c2ccccc2n1`, 21000 nM.
In the case of `O=C1NCC(=O)N2CCN(C(=O)Nc3cc(Cl)cc(Cl)c3)CC12` (centres undefined) it was 20300 nM; in that of `OC[C@H]1Nc2ccc(-c3cccc(F)c3)cc2[C@@H]2[C@H]1CCN2Cc1ccc(F)cc1`, 20000 nM; in that of `COc1ccc(CNC(=O)CC2N=C3c4ccccc4N=C(SCc4ccc(F)cc4)N3C2=O)cc1` (centres undefined), 22600 nM.
In the case of `COc1ccc(-c2nc(NCCCN3CCN(Cc4ccccc4)CC3)c3ccccc3n2)cc1` it was > 39000 nM (inactive); in that of `C/C=C/c1ccc([C@H]2[C@H](CO)N3CCCCN(S(=O)(=O)c4ccc(OC)cc4)C[C@@H]23)cc1`, > 39000 nM (inactive).

Source of the values: PubChem BioAssay AID1259418 (Broad Institute, 2018).
